Patent US8093025B2, “Bacterial vector” (Helmholtz-Zentrum fuer Infektionsforschung GmbH, priority 2004, dated 2012)

Legend:
CT26 tumor [1] = test: Vector with gene E under Prha and lux under PBAD plus TNFalpha in CT26 tumor mice; type: in vivo, Balb/c mice
Excerpt: As an example for multifunctional bacterial vectors for use in the pharmaceutical combination according to the invention, vaccine strain SL7207 was genetically manipulated by Tn7 mediated chromosomal integration of the mini-transposon of a plasmid pHL260b, modified from pHL260a by replacing the PBAD promoter by the L-rhamnose inducible promoter (Prha), derived from plasmid pJOE2702 (Stumpp et al., Biospektrum 6, 33-36(2000)). This strain chromosomally contains at least one copy of gene E of bacteriophage phiX174 under the control of the rhamnose inducible promoter (Prha). The resultant strain was then transformed with plasmid pTNFa-lux, containing the bioluminescence operon of Photorhabdus luminescence under control of the PBAD promoter in combination with the mouse TNFalpha gene under the control of the constitutive promoter from beta-lactamase (Pbla).
As described in Example 8, Balb/c mice bearing a CT26 tumor were administered 5×10^6 bacterial vector, suspended in PBS by intravenous administration. […] Upon administration of 120 mg L-arabinose dissolved in PBS intraperitoneally, to the same mice 1 day later, as well as on consecutive days, colonization of tumor tissue by bacterial vectors was monitored by spectrometry, more specifically luminometric analysis of anesthesized mice using a CCD camera.

PBAD [2] = test: GFP expression from bacterial vector within infected J774A1 cells, two colour flow cytometry; type: cell-based, murine; details: SL7207[pHL238] in J774A1 cells, L-arabinose 4 mM, 40 mM, 400 mM in medium, 3 hours
Experimental: The murine macrophage cell line J774A1 was infected with bacterial vector SL7207[pHL238] of Example 1. Before infection, cells were seeded to 2×10^6 cells per well in a 6-well plate in antibiotic-free medium (IMDM with 10% inactivated fetal calf serum, 2 mM glutamine) and grown for one day in a 5% CO2 atmosphere at 37° C. For infection, SL7207[pHL238] were grown from a glycerol stock overnight at 37° C. on a LB plate supplemented with antibiotics, followed by cultivation in liquid LB medium supplemented with antibiotics for approximately 2 hours at 37° C., shaking at 60 rpm. Bacteria were harvested by centrifugation, washed in PBS, resuspended in cell culture medium and added at a ˜MOI of 10. 30 min after start of infection cells were washed twice with PBS before medium containing gentamycin (50 μg/mL) was added to kill extracellular bacteria. […] GFP expressing bacteria in the lysates were monitored by flow cytometry. In order to differentiate fluorescence of GFP expressing bacteria from autofluorescent cell fragments the so-called two colour flow cytometry method was used (Bumann, Infect. Immun. (2001) 69, 4618-4626.). The analytical results are depicted in FIG. 3, with unspecific background fluorescence substracted. […]

PBAD [3] = test: Induction of plasmid replication in bacterial vector within infected J774A1 cells (GFP read-out); type: cell-based, murine; details: SL7207[pAEN17] in J774A1 cells, L-arabinose 4 mM, 40 mM, 400 mM, 3 hours
Experimental: J774A1 cells, a murine macrophage cell line, were infected with strain SL7207[pAEN17], as described in Example 2. 4 hours after infection, different amounts of L-arabinose were added into individual wells of infected J774A1 cells up to a concentration in the medium of 4 mM, 40 mM and 400 mM, respectively. 3 hours after addition of L-arabinose cells were treated with 0.25% Triton X-100. Bacteria in the lysates were monitored for GFP expression by flow cytometry as described in Example 2. The analytical results are depicted in FIG. 7, with unspecific background fluorescence substracted.

PBAD [4] = test: In vivo GFP expression from bacterial vector re-isolated from spleen of infected mice; design: species or system Balb/c mice; details: SL7207[pHL238] i.v., L-arabinose i.v. after 2 days, spleen 4 hours later
Experimental: Balb/c mice were infected intravenously with a dose of ca. 5×10^6 bacteria in PBS of bacterial vector SL7207[pHL238]. After 2 days, different amounts of L-arabinose dissolved in PBS were administered intravenously into mice. 4 hours after L-arabinose administration mice were sacrificed, spleens were removed, homogenized in PBS containing 0.1% Triton X-100 and lysates were analyzed by two colour flow cytometry.

[5] = system: SL7207 bearing the plasmid of FIG. 8; test: Induced lysis (gene E) of bacterial vector within infected J774A1 cells, CFU; type: cell-based, Salmonella enterica serovar Typhimurium; details: SL7207 with gene E plasmid pHL241, induction period 3 hours
Experimental: The plasmid pHL241 shown in FIG. 8 was derived from plasmid pHL238 shown in FIG. 1 by exchanging gene gfp against gene E.
For infection, J774A1 cells were cultured and infected with SL7207 bearing the plasmid of FIG. 8 according to the procedure of Example 2. Induction was by addition of L-arabinose to the final concentrations in cell culture medium as given in FIG. 9, for an induction period of 3 hours. Following induction, cells were harvested and lysed by addition of Triton X-100 to a concentration of 1 g/L. For re-isolation, intracellular bacterial vectors were plated on LB-agar containing ampicillin for quantification of viable bacteria as colony forming units (CFU).

PBAD [6] = test: GFP expression from plasmid pHL238 in bacterial culture after induction, flow cytometry; type: cell-based, Salmonella enterica serovar Typhimurium; details: induction by L-arabinose, vector SL7207[pHL238]
Excerpt: As an example for a structural gene, plasmid pHL238 (schematically depicted in FIG. 1) comprising the structural gene for green fluorescent protein (GFP) under the control of PBAD was cloned, further comprising the structural gene for the regulator of PBAD, araC under the control of its own promoter Pc, along with the Ampicillin resistance gene as a selection marker, and a high copy number origin of replication from pUC. Regulatory elements originate from plasmid pBAD18 (Guzman et al., J. Bacteriol. 1995 July; 177(14):4121-30)
This bacterial vector is based on Salmonella enterica serovar Typhimurium, strain SL7207, which is a known attenuated invasive salmonella strain in use for experimental vaccination. The salmonella strain was transformed with plasmid pHL238 by electroporation, transformed colonies were selected on LB-medium agar plates containing streptomycin at 30 μg/mL and ampicillin at 100 μg/mL. The resultant transformed strain was bacterial vector SL7207[pHL238]. […] Results are shown in FIG. 2, the thick line for addition of L-arabinose, the thin line without L-arabinose.

CT26 tumor [7] = test: In vivo colonization and luciferase transgene induction in CT26 tumor-bearing mice; design: species or system Balb/c mice
Excerpt: As a representative for a transgene, the luciferase gene from the firefly Photinus pyralis was used as the reporter gene. As the saccharide inducible promoter element, PBAD from the L-arabinose operon of E. coli was functionally linked to the luciferase gene, the promoter element further being in conjunction with the structural gene for its regulator protein araC under the control of its natural own promoter (PC). The bacterial vector was generated by transforming Salmonella enterica serovar Typhimurium, vaccine strain SL7207, with the plasmid containing the transgene under the control of the saccharide inducible promoter by electroporation.
As an example for an animal having a tumor, Balb/c mice were subcutaneously inoculated abdominally with 10^6 cells of the colon adenocarcinoma cell line CT26. After this tumor generation treatment, mice bearing tumors of approximately 400-600 mm^3 were intravenously injected with 5×10^6 bacteria of the above bacterial vector (SL7207[pHL259]), representing the first component of the pharmaceutical combination, suspended in phosphate buffered saline (PBS). Three days post infection, L-arabinose as the appropriate inductor saccharide, representing the second component of the pharmaceutical combination, was administered intraperitoneally, dissolved in PBS. Subsequently, mice were sacrificed and the tumors, spleens and livers dissected, then transferred into 3 mL of sterile, ice-cold PBS containing 0.1% (vol/vol) Triton X-100.
Tissues were disrupted in a Polytron PG3000 homogenizer (Kinematica, Littau, Switzerland). Homogenates were diluted in PBS and streaked on medium plates with selective antibiotic (ampicillin). Colonies were counted after incubation of plates. As a result, the number of bacteria in respective tissues could be calculated by counting the resulting colony forming units (cfu) for each organ.
The induction of the transgene was determined by measurement of the reporter gene (luciferase) activity from tissue homogenates after dilution (1:1) in 2× luciferase assay lysis buffer (50 mM tris-HCl, 4 mM DTT, 20% (vol/vol) glycerol, 2% (vol/vol) Triton X-100, 2 mg/mL lysozyme, pH 8.3), incubation at 25° C. for 10 minutes, centrifugation at 3,000×g for 3 minutes, 10 μL supernatant were added to 100 mL LARII reagent of the luciferase assay system according to the manufacturer's instructions (Promega, Mannheim, Germany). Luminescence intensity was measured spectrometrically in a luminometer (Lumat LB9507, Berthold, Pforzheim, Germany). Dilution was taken into account when calculating RLU per organ.

PBAD [8] = test: In vitro regulation of copy number of plasmid pAEN17 (GFP read-out) in bacterial culture; type: cell-based, Salmonella enterica serovar Typhimurium; details: addition of L-arabinose, trfA under PBAD acting on oriV
Excerpt: In the absence of L-arabinose, just one copy of this plasmid per bacterial cell is maintained, regulated by the origin of replication derived from the F plasmid of Escherichia coli. In addition, this plasmid contains the inducible origin of replication of plasmid RK2, namely oriV. The replicase gene trfA, acting on this origin, is placed under the control of PBAD, as an example for a saccharide inducible promoter.
In order to allow for a convenient analysis of plasmid replication, GFP was placed under control of the weak constitutive Pbla promoter derived from the bla gene, also contained on said vector. The recombinant strain SL7207[pAEN17] was grown into logarithmic phase and either no or 0.1% L-Arabinose was added into bacterial cultures.

| Compound | lysis of bacterial vector and release of TNFalpha (CT26 tumor [1]; 120 mg L-rhamnose i.p. 3 days after vector i.v.) | fluorescence intensity of GFP (PBAD [2]) | fluorescence intensity of GFP (PBAD [3]) | bioluminescence from lux operon under PBAD (CT26 tumor [1]; 120 mg L-arabinose i.p., repeated administration after L-rhamnose) | expression of GFP by bacteria recovered from infected animals (PBAD [4]) | number of viable bacterial vectors inside infected J774A1 cells (CFU) [5] | GFP fluorescence relative to background without induction (PBAD [6]) | induction of transgene expression (luciferase, RLU) (CT26 tumor [7]; L-arabinose i.p. three days post infection, tumor, spleen, liver) | transgene activity in spleen and liver (CT26 tumor [7]; spleen and liver) | time of main transgene activity past administration of the inductor saccharide (CT26 tumor [7]; tumor tissue) | absolute transgene activity, comparison of tissues (CT26 tumor [7]; tumor, spleen, liver) | copy number of the plasmid pAEN17 (PBAD [8]) |
| --- | --- | --- | --- | --- | --- | --- | --- | --- | --- | --- | --- | --- |
| C[C@H](O)[C@H](O)[C@@H](O)[C@@H](O)C=O [L-rhamnose] | lysis of bacterial vector and release of TNFalpha was observed |  |  |  |  |  |  |  |  |  |  |  |
| O=C[C@H](O)[C@@H](O)[C@@H](O)CO [L-arabinose] |  | increases with increasing concentrations of L-arabinose | increases with increasing concentrations of L-arabinose | bioluminescence | induced by L-Arabinose in a dose-dependent manner | drastically decreases the number of viable bacterial vectors | more than two orders above the background fluorescence | induces transgene expression for all tissues tested | very low to about background levels | about 6 hours | greatest in tumor tissue | increased copy number |
